The values that follow come from patent US8008303B2, “Biphenyl derivatives and their use in treating hepatitis C” (AstraZeneca AB, priority 2005, dated 2011).

Like-named read-outs stand apart in the source and are kept apart here.

For data set [1], the system named is HCV replicon cells Huh 9B. The class given is cell-based. The method, then: (§1) HCV replicon cells Huh 9B (ReBlikon), containing the firefly luciferase-ubiquitin-neomycin phosphotransferase fusion protein and EMCV-IRES driven HCV polyprotein with cell culture adaptive mutations.
A flask of cells was trypsinised and a cell count carried out. […] Wells G12 and H12 were left empty in the clear plate as the blank. Plates were then incubated at 37° C. in a 5% CO2 environment for 24 h.
(§2) On the following day compound dilutions are made up in medium at twice their desired final concentration in a clear round bottomed plate. All dilutions have a final DMSO concentration of 1%.
Exception: no compound was added to wells A1 and A2 of either plate and 100 μl of 1% DMSO was added to these instead. Plates were then incubated at 37° C. with 5% CO2 for 72 h.
The clear plate was stained with 100 μl 0.5% methylene blue in 50% ethanol at room temperature for 1 h, followed by solvation of the absorbed methylene blue in 100 μl per well of 1% lauroylsarcosine. Absorbance of the plate was measured on a microplate spectrophotometer (Molecular Devices) and the absorbance for each concentration of compound expressed as a proportion of the relative DMSO control.

Data set [2] concerns HCV replicon cells Huh 9B. Kind of data set: HCV replicon assay (luciferase readout). In kind it is cell-based. The method, then: as §1
Cells were cultured at 37° C. in a 5% CO2 environment and split twice a week on seeding at 2×10^6 cells/flask on day 1 and 1×10^6 3 days later. G418 at 0.5 mg/ml was added to the culture medium but not the assay medium.
The culture medium consisted of DMEM with […] glucose and glutamax (Gibco 61965-026) supplemented with 1× non-essential amino acids (Invitrogen 11140-035), penicillin (100 IU/ml)/streptomycin (100 μg/ml) (Invitrogen 15140-122), FCS (10%, 50 ml) and 1 mg/ml G418 (Invitrogen 10131-027) & 10% Australian foetal calf serum (Invitrogen 10099-141).
A flask of cells was trypsinised and a cell count carried out. Cells were diluted to 100,000 cells/ml and 100 μl of this used to seed one opaque white 96-well plate (for the replicon assay) and one flat-bottomed clear plate (for the tox assay) for every seven compounds to be tested for IC50. Wells G12 and H12 were left empty in the clear plate as the blank. Plates were then incubated at 37° C. in a 5% CO2 environment for 24 h.
as §2
Once the dilution plate had been made up, controls and compounds were transferred to the assay plate (containing the cells) at 100 μl /well in duplicate plates. Exception: no compound was added to wells A1 and A2 of either plate and 100 μl of 1% DMSO was added to these instead. Plates were then incubated at 37° C. with 5% CO2 for 72 h.
At the end of the incubation time, the cells in the white plate were harvested by washing 23.5 mM beetle luciferin (Promega E1603), 26 mM ATP (Sigma 0-2060) in […] Tris buffer pH 7.8 aliquoted and stored at −80 C was thawed and diluted 1:50 in luciferase assay buffer (20 mM Tricine (Sigma T-0377), 1.07 mM magnesium carbonate hydroxide (Sigma M-5671), 0.1 mM EDTA (Sigma E-5134), 2.67 mM MgSO4 (BDH 101514Y), 33.3 mM dithiothreitol (Sigma 150460) pH 7.8).
The M injector of the microplate luminometer (Lmax, Molecular Devices) was primed with 5×300 μl injections of the diluted substrate. After 5-60 min incubation in lysis buffer at room temperature, a plate was inserted into the luminometer and 100 μl luciferase assay reagent was added by the injector on the luminometer. The signal was measured using a 1 second delay followed by a 4 second measurement programme.

[3] abbreviates: concentration reducing total cell area by 50% relative to DMSO controls, methylene blue, absorbance 620 nm, 72 h incubation.
[4] abbreviates: Hepatitis C virus, 72 h, concentration reducing replicon level (luciferase activity) by 50% vs untreated cell control, 72 h incubation.

With `COc1cccc(C(=O)Nc2ccc(-c3cc(C(=O)Nc4ccc(N5CCOCC5)cc4)ccc3C)cc2)c1` [Example 107, 4′-(3-Methoxy-benzoylamino)-6-methyl-biphenyl-3-carboxylic acid (4-morpholin-4-yl-phenyl)-amide], the TD50 result in data set [1] (setting [3]) is given as “** (** > 50 μM)”. Moreover, the 50% inhibitory concentration (IC50) in data set [2] (setting [4]) is under 1000 nM.

For `Cc1ccc(NC(=O)CC2CCCCC2)cc1-c1ccc(C(=O)Nc2ccc(CN3CCS(=O)(=O)CC3)cc2)cc1` [Example 165, 5′-(2-Cyclohexyl-acetylamino)-2′-methyl-biphenyl-4-carboxylic acid [4-(1,1-dioxo-1lambda*6*-thiomorpholin-4-ylmethyl)-phenyl]-amide], the TD50 entry in data set [1] (setting [3]) is listed as “* (* < 50 μM)”. This compound also came in with a concentration for half-maximal inhibition (IC50) in data set [2] (setting [4]) of under 1000 nM.

In the case of `Cc1ccc(C(=O)Nc2ccc(N3CCOCC3)cc2)cc1-c1ccc(C(=O)Nc2ccc(Br)c(Cl)c2)cc1` [Example 30, 6-Methyl-biphenyl-3,4′-dicarboxylic acid 4′-[(4-bromo-3-chloro-phenyl)-amide] 3-[(4-morpholin-4-yl-phenyl)-amide]], the TD50 entry in data set [1] was “** (key: * < 50 μM; ** > 50 μM)”. For the same compound, in data set [2], the half-inhibitory concentration (IC50) was 1000 to 5000 nM.

In the case of `COc1ccc(NC(=O)c2ccc(-c3cc(C(=O)Nc4ccc(N5CCOCC5)cc4)ccc3C)cc2)cc1OC` [Example 34, 6-Methyl-biphenyl-3,4′-dicarboxylic acid 4′-[(3,4-dimethoxy-phenyl)-amide] 3-[(4-morpholin-4-yl-phenyl)-amide]], the TD50 result in data set [1] is given as “** (key: * < 50 μM; ** > 50 μM)”. The IC50 in data set [2] fell in the range of 1000 to 5000 nM.

Turning to `CS(=O)(=O)N1CCN(Cc2ccc(NC(=O)c3ccc(Cl)c(-c4ccc(C(=O)Nc5ccc(N6CCOCC6)cc5)cc4)c3)cc2)CC1` [Example 265, 6-Chloro-biphenyl-3,4′-dicarboxylic acid 3-{[4-(4-methanesulfonyl-piperazin-1-ylmethyl)-phenyl]-amide} 4′-[(4-morpholin-4-yl-phenyl)-amide]], in data set [1], the TD50 entry is “* (key: * < 50 μM; ** > 50 μM)”. Further, in data set [2], the IC50 is under 1000 nM.

With `O=C(Nc1ccc(CN2CCS(=O)(=O)CC2)cc1)c1ccc(-c2cccc(NC(=O)C3CCCCC3)c2)cc1` [Example 196, 3′-(Cyclohexanecarbonyl-amino)-biphenyl-4-carboxylic acid [4-(1,1-dioxo-1lambda*6*-thiomorpholin-4-ylmethyl)-phenyl]-amide], the TD50 entry in data set [1] (setting [3]) is listed as “* (* < 50 μM)”. This compound registered an IC50 in data set [2] (setting [4]) of 1000 to 5000 nM.

For the compound `Cc1ccc(NC(=O)C2CC2)cc1-c1ccc(C(=O)Nc2ccc(CN3CCS(=O)(=O)CC3)cc2)cc1` [Example 132, 5′-(Cyclopropanecarbonyl-amino)-2′-methyl-biphenyl-4-carboxylic acid [4-(1,1-dioxo-1lambda*6*-thiomorpholin-4-ylmethyl)-phenyl]-amide], the TD50 entry in data set [1] (setting [3]) is on record as “* (* < 50 μM)”. In addition, in data set [2] (setting [4]), the concentration for half-maximal inhibition (IC50) was under 1000 nM.

Take `CCCS(=O)(=O)N1CCN(Cc2ccc(NC(=O)c3ccc(-c4cc(C(=O)Nc5ccc(N6CCOCC6)c(F)c5)ccc4Cl)cc3)cc2)CC1` [Example 264, 6-Chloro-biphenyl-3,4′-dicarboxylic acid 3-[(3-fluoro-4-morpholin-4-yl-phenyl)-amide] 4′-({4-[4-(propane-1-sulfonyl)-piperazin-1-ylmethyl]-phenyl}-amide)]: the TD50 entry in data set [1] (setting [3]) was “* (* < 50 μM)”. Moreover, in data set [2], the IC50 is under 1000 nM.

Take `Cc1ccc(NC(=O)C2CCC2)cc1-c1ccc(C(=O)Nc2ccc(CN3CCS(=O)(=O)CC3)cc2)cc1` [Example 195, 5′-(Cyclobutanecarbonyl-amino)-2′-methyl-biphenyl-4-carboxylic acid [4-(1,1-dioxo-1lambda*6*-thiomorpholin-4-ylmethyl)-phenyl]-amide]: the TD50 result in data set [1] (setting [3]) is on record as “* (* < 50 μM)”. For the same compound, the IC50 in data set [2] (setting [4]) was under 1000 nM.

Take `Cc1ccc(NC(=O)c2cncs2)cc1-c1ccc(C(=O)Nc2ccc(CN3CCS(=O)(=O)CC3)cc2)cc1` [Example 179, Thiazole-5-carboxylic acid {4′-[4-(1,1-dioxo-1lambda*6*-thiomorpholin-4-ylmethyl)-phenylcarbamoyl]-6-methyl-biphenyl-3-yl}-amide]: the TD50 result in data set [1] (setting [3]) was “* (* < 50 μM)”. Besides, in data set [2] (setting [4]), the concentration for half-maximal inhibition (IC50) is under 1000 nM.

Turning to `CCNC(=O)Nc1ccc(C)c(-c2ccc(C(=O)Nc3ccc(CN4CCS(=O)(=O)CC4)cc3)cc2)c1` [Example 188, 5′-(3-Ethyl-ureido)-2′-methyl-biphenyl-4-carboxylic acid [4-(1,1-dioxo-1lambda*6*-thiomorpholin-4-ylmethyl)-phenyl]-amide], the TD50 result in data set [1] (setting [3]) was “* (* < 50 μM)”. The compound also returned an IC50 in data set [2] (setting [4]) of under 1000 nM.

For `COc1ccc(S(=O)(=O)Nc2ccc(N3CCOCC3)cc2)cc1-c1ccc(C(=O)Nc2ccc(CN3CCN(S(C)(=O)=O)CC3)cc2)cc1` [Example 245, 2′-Methoxy-5′-(4-morpholin-4-yl-phenylsulfamoyl)-biphenyl-4-carboxylic acid [4-(4-methanesulfonyl-piperazin-1-ylmethyl)-phenyl]-amide], the TD50 result in data set [1] (setting [3]) is listed as “* (* < 50 μM)”. The 50% inhibitory concentration (IC50) in data set [2] (setting [4]) was under 1000 nM.

Take `Cc1ccc(NC(=O)C2CCCCC2)cc1-c1ccc(C(=O)Nc2ccc(CN3CCCC3)cc2)cc1` [Example 227, 5′-(Cyclohexanecarbonyl-amino)-2′-methyl-biphenyl-4-carboxylic acid (4-pyrrolidin-1-ylmethyl-phenyl)-amide]: the TD50 result in data set [1] (setting [3]) was “* (* < 50 μM)”. In data set [2] (setting [4]), this compound gave an IC50 of 1000 to 5000 nM.

Consider `Cc1ccc(C(=O)Nc2ccc(N3CCOCC3)cc2)cc1-c1ccc(C(=O)Nc2cccc(F)c2)cc1` [Example 27, 6-Methyl-biphenyl-3,4′-dicarboxylic acid 4′-[(3-fluoro-phenyl)-amide] 3-[(4-morpholin-4-yl-phenyl)-amide]], for which, in data set [1], the TD50 result is “** (key: * < 50 μM; ** > 50 μM)”. In data set [2], this compound displayed an IC50 of 1000 to 5000 nM.

On to `Cc1cc(C(=O)Nc2ccc(N3CCOCC3)cc2)ccc1-c1cccc(C(=O)NCc2cccc(Cl)c2)c1` [Example 66, 2′-Methyl-biphenyl-3,4′-dicarboxylic acid 3-(3-chloro-benzylamide) 4′-[(4-morpholin-4-yl-phenyl)-amide]], for which the TD50 result in data set [1] is “* (key: * < 50 μM; ** > 50 μM)”. The half-maximal inhibitory concentration (IC50) in data set [2] lay in the range of 1000 to 5000 nM.

On to `Cc1ccc(C(=O)NC2CC2)cc1-c1ccc(C(=O)Nc2ccc(CN3CCS(=O)(=O)CC3)cc2)cc1` [Example 121, 6-Methyl-biphenyl-3,4′-dicarboxylic acid 3-cyclopropylamide 4′-{[4-(1,1-dioxo-1lambda*6*-thiomorpholin-4-ylmethyl)-phenyl]-amide}], for which the TD50 entry in data set [1] is listed as “* (key: * < 50 μM; ** > 50 μM)”. Also, in data set [2], the 50% inhibitory concentration (IC50) was in the range of 1000 to 5000 nM.

As for `CCCS(=O)(=O)N1CCN(Cc2ccc(NC(=O)c3ccc(-c4cc(C(=O)Nc5ccc(N6CCOCC6)cc5C)ccc4OC)cc3)cc2)CC1` [Example 260, 6-Methoxy-biphenyl-3,4′-dicarboxylic acid 3-[(2-methyl-4-morpholin-4-yl-phenyl)-amide] 4′-({4-[4-(propane-1-sulfonyl)-piperazin-1-ylmethyl]-phenyl}-amide)], the TD50 result in data set [1] (setting [3]) is on record as “* (* < 50 μM)”. Also, in data set [2], the IC50 is under 1000 nM.

Regarding `COc1ccccc1C(=O)Nc1ccc(-c2cccc(C(=O)Nc3ccc(CN4CCS(=O)(=O)CC4)cc3)c2)c(C)c1` [Example 134, 4′-(2-Methoxy-benzoylamino)-2′-methyl-biphenyl-3-carboxylic acid [4-(1,1-dioxo-1lambda*6*-thiomorpholin-4-ylmethyl)-phenyl]-amide], the TD50 result in data set [1] (setting [3]) was “* (* < 50 μM)”. The half-maximal inhibitory concentration (IC50) in data set [2] (setting [4]) lay within 1000 to 5000 nM.
